{"source": "patent US20050249744A1", "about": "“Mhc class II haplotype specific immunodominancy of peptides derived from rsv fusion (f) and attachement (g) proteins” (priority 2002, published 2005)", "key": {"[1]": {"system": "PBMC from healthy donors (CD4 T cells)", "assay": "direct IFN-γ elispot assay on PBMC stimulated with RSV F/G peptides, peptide pools or intact virus", "assay_type": "cell-based, human", "conditions": "donors carrying the most frequent MHC class II molecules of the caucasian population; no pre-expansion of T cells", "protocol": "Buffycoats were obtained from healthy adult blood donors with informed consent. PBMC's were isolated by density centrifugation using lymphoprep (Nycomed Pharma). PBMC's were either thawed from cryopreserved samples (−135° C.), in RPMI 1640 (Gibco), 10% Dimethyl Sulfoxide, 30% fetal bovine serum (FBS, Gibco), or used fresh.\nHuman RSV strain A2 (available under number VR 1302 from the ATCC, Manassas, Va., USA) was propagated in HEp-2 cells and titrated by plaque assay. The virus was routinely used in experiments at a MOI of 1 (MOI=multiplicity of infection). A series of 94 peptides, 18 amino acid residues long was synthesised by standard solid phase Fmoc chemistry. All peptides were analysed by mass spectrometry and gave the anticipated (M+H)^+ except for peptides 11,12 and 85, that were excluded from the study. Peptides 69 and 70 were made at the end of the series and were numbered 95 and 96 respectively. The peptides synthesised were based on the sequence of the fusion protein F of RSV strain A2. They overlapped by 12 amino acid residues. For the G protein we used a series over overlapping peptides representing amino acid residues 161-199 of the G protein of RSV strain A2. The sequences of these G protein-derived peptides were: DFHFEVFNFVPCSI; FEVFNFVPCSICSNN; FNFVPCSICSNNPTCW; SICSNNPTCWAICKRI; SNNPTCWAICKRIPNKKP; WAICKRIPNKKPGKK; and ICKRIPNKKPGKKTT.\n(§1) 96 well filtration plates (MAIPS45 10, Millipore) were coated overnight with anti-IFN-γ coating antibody (Ab) 1-D1K (100 μl, 15 μg/ml, Mabtech) in 0.1M carbonate-bicarbonate buffer pH 9.6, at 4° C. Before adding the cells the plate were washed thoroughly with PBS, blocked for one hour at 37° C. with RPMI 1640 containing 10% FBS. Cells and either virus or peptide were added to the well in a final volume of 200 μl of RPMI 1640, 10% FBS, penicillin and streptomycin. Cells were incubated at 37° C. overnight in a humidified incubator. Then cells were removed by thoroughly washing in PBS and 100 μl of detecting mAb 7-B6-1-biotin (Mabtech), diluted to 1 μg/ml in PBS-0.5% FBS was added to the wells. After incubating 2 hrs at room temperature and washes in PBS, 100 μl (1/1000 diluted in PBS, 0.5% FBS) ExtraAvidine Alkaline Phosphatase Conjugate (Sigma) was added and incubated 1-2 hours at room temperature. Then the plates were washed in PBS and BCIP/NBT substrate was added 100 μl/well, (BCIP/NBT tablets Sigma, 1 tablet diluted in 10 ml H2O). Spots were counted by two investigators. Most data are represented as the number of spots per 10^−6 PBMC minus background of unstimulated wells. Only in Table 1 the uncorrected number of spots is shown. In the mAb blocking experiments the antibodies were added to the cells prior to the stimulating peptides. The cells and mAb were preincubated for 30 minutes at 37° C., after which the peptides were added to the cultures. The mAb used are culture supernatants of hybridoma's B8.11.2 producing anti HLA-DR and SPVL3 anti HLA-DQ.\nA set of overlapping peptides 18 amino acid residues long and overlapping by 12 amino acid residues, spanning the entire length of the F protein of RSV strain A2 was synthesised. In a preliminary search for antigenic epitopes pools of 6 consecutive peptides were made. These peptide pools were analysed in an elispot assay for their ability to induce IFN-γ production in PBMC from healthy donors. In Table 1 the data are summarised for a group of donors in which the most frequently occurring MHC class II molecules within the caucasian population are represented. We were able to detect IFN-γ production in response to stimulation with intact RSV at a MOI of 1. The level of the response varied from donor to donor but was generally in the order of 100 to 500 spots per 10^−6 PBMC. There was no correlation between better responses and the time of the year the blood was sampled. Most donors responded to more than one peptide pool. […]"}, "[2]": {"system": "APC-depleted PBMC (CD4 cells)", "assay": "IFN-γ elispot using APC-depleted PBMC as responders and fixed PBMC from homozygous donors as APC", "assay_type": "cell-based, human", "conditions": "high responder heterozygous donors carrying HLA-DR7,11,15; fixed homozygous donor PBMC as APC", "protocol": "as §1\nIn a second step the individual peptides from the positive pools that were able to induce IFN-γ production were identified for five individual donors (data not shown). For most pools a clearcut response identified one or two positive peptides. Sometimes two adjacent peptides were found positive that possibly contained an overlapping epitope. The peptide length of 18 amino acid residues is sufficiently long to encompass MHC class II peptides and less suitable for MHC class I interaction. For presentation by MHC class I molecules the 18-mer peptides require cleavage to 9-11 amino acid residues in order to be able to bind into the class I binding groove. Yet in our initial screens we used fairly high concentrations of peptides that had not been purified by HPLC. Therefore, it could be possible that the responses we observed were either CD4 or CD8 T cell responses. To determine the T cell subset—CD4 or CD8—responding to the peptides, we performed elispot assays using PBMC depleted for either CD8 T cells or CD4 T cells. […]"}}}
{"sequence": "SVITIELSNIKENKCNGT (respiratory syncytial virus) [Peptide 10, peptide aa 55-72 of RSV strain A2 fusion protein F]", "values": [{"measurement": "MHC haplotype that recognises the peptide, as measured by IFN-γ production in a direct elispot assay", "setting": "[1]", "result": "HLA-DR7"}, {"measurement": "MHC restriction element presenting the peptide to CD4 cells", "setting": "[2]", "result": "HLA-DR7"}]}
